# Data: article PMC4176394 (Journal of Natural Products, 2014)
# Assays:
# [1] = test system: MDA-MB-435 (melanoma) cancer cell line; assay: Cytotoxicity assay, MDA-MB-435 cells; type: cell-based, human; settings: for factor by which activity is reduced relative to compound 5: MDA-MB-435 cells, versus 5; for IC50: Homo sapiens, MDA-MB-435, 72 h, read-out: IC50 values, MDA-MB-435
# [2] = test system: HT-29 (colon) cancer cell line; assay: Cytotoxicity assay, HT-29 cells; type: cell-based, human; settings: for IC50: Homo sapiens, HT-29, 72 h, read-out: IC50 values, HT-29
# Stability in solution = type: physicochemical; settings: CDCl3
SMILES,factor by which activity is reduced relative to compound 5 [1],IC50 [1] [µM],IC50 [2] [µM],other results
"COc1cc(O)c(Cl)c2c1C(=O)O[C@@H](C)CCC(=O)CC/C=C/C(=O)C2 [Compound 1, greensporone A]",~5,,,
"COc1cc(O)c(Cl)c2c1C(=O)O[C@@H](C)CCC(=O)CCCCC(=O)C2 [Compound 3, 8,9-dihydrogreensporone A]",,> 20,> 20,
"COc1cc(O)cc2c1C(=O)O[C@@H](C)CCC(=O)CC/C=C/C(=O)C2 [Compound 4, dechlorogreensporone A]",~5,,,
"C[C@H]1CCCCC/C=C/C(=O)Cc2cc(O)cc(O)c2C(=O)O1 [Compound 6, O-desmethylgreensporone C]",5,,,"factor by which activity is reduced relative to compound 5 ([2]; HT-29 cells, versus 5): 2"
"COc1cc(O)c(Cl)c2c1C(=O)O[C@@H](C)CC[C@@H](O)CC/C=C/C(=O)C2 [Compound 8, greensporone D]",,,,stability in solution (Stability in solution): converted to 12
"COc1cc(O)cc2c1C(=O)O[C@@H](C)CC[C@H]1CC[C@H](CC(=O)C2)O1 [Compound 14, greensporone G]",,> 20,> 20,
"COc1cc(O)c(Cl)c2c1C(=O)O[C@@H](C)CC[C@@H](O)CC/C=C\C(=O)C2 [Compound 9, greensporone E]",,> 20,> 20,
"COc1cc(O)c(Cl)c2c1C(=O)O[C@@H](C)CC[C@@H](O)CCCCC(=O)C2 [Compound 11, 8,9-dihydrogreensporone D]",,> 20,> 20,
"COc1cc(O)cc2c1C(=O)O[C@@H](C)CC[C@@H](O)CC/C=C/C(=O)C2 [Compound 10, dechlorogreensporone D]",~4,,,
"COc1cc(O)cc2c1C(=O)O[C@@H](C)CC[C@H]1CC[C@@H](CC(=O)C2)O1 [Compound 13, dechlorogreensporone F]",,> 20,> 20,
"COc1cc(O)c(Cl)c2c1C(=O)O[C@@H](C)CCC(=O)CC/C=C\C(=O)C2 [Compound 2, greensporone B]",,> 20,> 20,
"COc1cc(O)cc2c1C(=O)O[C@@H](C)CCCCCCCC(=O)C2 [Compound 7, 8,9-dihydrogreensporone C]",,> 20,> 20,
